Laboratory results reported in patent US9932303B2, “N-hydroxymethanesulfonamide nitroxyl donors” (Cardioxyl Pharmaceuticals, Inc., priority 2014, dated 2018).
Values belong to the compound of their own block, whether it stands above or below them.

Columns and labels:
[1] = In vitro stability in dog plasma; assay type: in vitro ADME; settings: male, pH 7.4, 37° C., read-out: T1/2 (minutes) Dog
Protocol: (§1) Certain compounds from Table 1 were tested for their stability in plasma. The assay system comprised (i) PBS, or plasma from rat, dog or human (at least 3 donors, male, pooled) at pH 7.4, and (ii) for tests conducted in plasma, an anticoagulant (sodium heparin or sodium citrate). Each test compound (5 μM) was incubated in PBS or plasma at 37° C. on a THERMOMIXER® with shaking Three samples (n=3) were taken at each of seven sampling time points: 0, 10, 30, 60, 90, 180 and 360 minutes. The samples were immediately combined with 3 volumes (i.e., 3 times the volume of PBS or plasma) of acetonitrile containing 1% formic acid and an internal standard to terminate the reaction. AB SCIEX API 3000 LC-MS/MS analysis of the test compounds was performed without a standard curve. Half-lives (T1/2) of the test compounds were determined from graphs of the percent remaining values using the peak area response ratio.

[2] = Solid-state stability (appearance, HPLC purity) on storage; assay type: physicochemical; settings: 40° C., 70% RH
Protocol: Solid, powdered samples of compound 2 (1-(4-chlorophenyl)-N-hydroxymethanesulfonamide) were sealed in double polyethylene bags and stored at 40° C., 70% relative humidity (RH) for up to 3 months. After 2 weeks, 1 month, 2 months, and 3 months of storage, the samples were analyzed for visual appearance and/or purity, as determined by high performance liquid chromatography (HPLC). The HPLC measurement conditions were as follows: • Column: PrimeSep AB, 150×4.6 mm, 5 μm • Injection Volume: 10 μL • Detection Wavelength: 220 nm • Mobile Phase A: 0.3% Trifluoroacetic acid (TFA) in deionized water (DI-H2O) • Mobile Phase B: 0.2% TFA in acetonitrile • Diluent: Acetonitrile • Gradient:
• Flow Rate: 1.0 mL/min • Column Temperature: 30° C.

[3] = Nitroxyl production via N2O headspace analysis (GC); settings: PBS, 37° C.
Text: Nitrous oxide (N2O) is produced via the dimerization and dehydration of HNO, and is the most common marker for nitroxyl production (Fukuto et al., Chem. Res. Toxicol. 18:790-801 (2005)). […] Using either nitrous oxide gas or Angeli's salt (AS) as a standard, the relative amounts of N2O released from N-hydroxymethanesulfonamide nitroxyl donating compounds was examined via gas chromatography (GC) headspace analysis.
A procedure for determining the relative amounts of N2O released from N-hydroxymethanesulfonamide nitroxyl donating compounds is as follows. GC was performed on an Agilent gas chromatograph equipped with a split injector (10:1 splitting), microelectron capture detector, and a HP-MOLSIV 30 m×0.32 mm×25 μm molecular sieve capillary column. Helium was used as the carrier (4 mL/min) gas and nitrogen was used as the make-up (20 mL/min) gas. […]
All determinations used a batch of nominal 20 mL headspace vials with volumes pre-measured for sample uniformity (actual vial volume varied by ≤2.0% relative standard deviation (n=6)). The average vial volume for the batch was determined from six randomly-selected vials by calculating the weight difference between the capped and sealed empty (i.e., air-filled) vial and the capped and sealed deionized water-filled vial using the known density of deionized water, then averaging. […]

[4] = In vitro stability in rat plasma; assay type: in vitro ADME; settings: male, pH 7.4, 37° C., read-out: T1/2 (minutes) Rat
Protocol: as §1

[5] = In vitro stability in human plasma; assay type: in vitro ADME; settings: male, pH 7.4, 37° C., read-out: T1/2 (minutes) Human
Protocol: as §1

half-life at 5 μM [1]: 62 min | Appearance ([2]; 0 Weeks): White | HPLC Purity ([2]; 0 Weeks): 98.912% | HPLC peak at RRT 0.88 ([2]; 0 Weeks): 0.368% | HPLC peak at RRT 1.23 ([2]; 0 Weeks): 0.087% | HPLC peak at RRT 1.35 ([2]; 0 Weeks): 0.633% | Appearance ([2]; 1 Month): White | HPLC Purity ([2]; 1 Month): 95.579% | HPLC peak at RRT 0.88 ([2]; 1 Month): 0.966% | HPLC peak at RRT 1.54 ([2]; 1 Month): 1.959% | HPLC peak at RRT 1.76 ([2]; 1 Month): 0.502% | Appearance ([2]; 2 Months): Off white | HPLC Purity ([2]; 2 Months): 82.665% | HPLC peak at RRT 0.88 ([2]; 2 Months): 3.600% | HPLC peak at RRT 1.53 ([2]; 2 Months): 6.432% | HPLC peak at RRT 1.77 ([2]; 2 Months): 3.234% | Appearance ([2]; 2 Weeks): White | Appearance ([2]; 3 Months): Off white | HPLC Purity ([2]; 3 Months): 76.661% | HPLC peak at RRT 0.88 ([2]; 3 Months): 4.108% | HPLC peak at RRT 1.50 ([2]; 3 Months): 10.123% | HPLC peak at RRT 1.77 ([2]; 3 Months): 3.165% | melting point: 144 °C | half-life at 5 μM [4]: 114 min | half-life at 5 μM [5]: 102 min
SMILES: O=S(=O)(Cc1ccc(Cl)cc1)NO [Compound 2, 1-(4-Chlorophenyl)-N-hydroxymethanesulfonamide]
Relative N2O Yield (90 minute incubation) [3]: 24%

half-life at 5 μM [1]: 26 min | melting point: 163 °C
SMILES: O=[N+]([O-])c1ccccc1CS(=O)(=O)NO [Compound 1, N-Hydroxy-1-(2-nitrophenyl)methanesulfonamide]
Relative N2O Yield (90 minute incubation) [3]: 37%
